Data taken from PMC6277767, “Broad and Region-Specific Impacts of the Synthetic Cannabinoid CP 55,940 in Adolescent and Adult Female Mouse Brains” (Frontiers in Molecular Neuroscience, 2018).

Assay: CP 55,940 levels in eight brain regions 2 h after single i.p. 3 mg/kg injection (HPLC/MS/MS)
Assay type: in vivo, mouse
Details: for CP 55,940 level: 3mg/kg CP 55,940, mean
Protocol: The Bloomington Institutional Animal Care and Use Committee of Indiana University reviewed and approved the animal procedures. Female mice from the CD1 strain were utilized to match our study examining THC’s effects on the brain lipidome ([Leishman et al., 2018]). Mice were given a single i.p. injection of either 3 mg/kg CP or 1:1:18 cremophor:ethanol:saline vehicle (please refer to the section “3 mg/kg CP Is Relevant for Synthetic Cannabinoid Abuse and Has Stronger Effects on the Female Mouse Brain Lipidome During Adolescence” for a justification of dose and use of female mice). Three different age groups were given injections: PND 35 and PND 50 adolescents, and adult mice (PND 113). At least eight mice in each age group received CP and at least eight received vehicle. Matching the THC study time course ([Leishman et al., 2018]), mice were sacrificed via rapid decapitation 2 h after injection. Brains were immediately removed and flash-frozen in liquid nitrogen, and then stored at -80°C until dissections were performed. Brains were dissected on an ice-cold dissection plate into the following regions: STR, HIPP, CER, THAL, CTX, HYP, MID, and STEM. These abbreviations for these brain areas will be used exclusively when discussing the results generated by these specific dissections. Each dissected area was immediately placed in liquid nitrogen and then stored at -80°C until used for lipid extraction.
Tissue extracts were performed as previously described ([Bradshaw et al., 2006]; [Stuart et al., 2013]; [Raboune et al., 2014]; [Leishman et al., 2016a],[b], [2017], [2018]). First, samples were shock frozen in liquid nitrogen, weighed, and transferred to a centrifuge tube. The mass of the largest sample was multiplied by 50 to determine how many milliliters of HPLC-grade methanol (Fisher, Fair Lawn, NJ, United States) to add. Then, samples were spiked with 500 pmol deuterium-labeled NAGly (d8NAGly; Cayman Chemical, Ann Arbor, MI, United States). Samples were placed on ice in darkness for 2 h then individually homogenized and centrifuged at 19,000 × g for 20 min at 20°C. Supernatants were diluted with HPLC water (purified in house) to make a solution of 75% water, 25% supernatant. Lipids were partially purified on C18 solid phase extraction columns (Agilent, Palo Alto, CA, United States). A series of four elutions with 1.5 mL of 60%, 75%, 85%, and 100% methanol were collected ([Stuart et al., 2013]; [Leishman et al., 2016a],[b], [2018]).
As previously described ([Bradshaw et al., 2006]; [Tan et al., 2006]; [Smoum et al., 2010]; [Stuart et al., 2013]; [Tortoriello et al., 2013]; [Raboune et al., 2014]; [Leishman et al., 2016a],[b], [2017], [2018]), samples were analyzed using an Applied Biosystems API 3000 triple quadrupole mass spectrometer with electrospray ionization (Foster City, CA, United States). Using an Agilent XDB-C18 reversed phase analytical column and optimized mobile phase gradients, 20 μL from each elution were chromatographed. Two Shimadzu 10ADvp pumps (Columbia, MD, United States) provided the pressure for gradient elution. Mobile phase A: 20% methanol, 80% water (v/v) and 1 mM ammonium acetate (Sigma, St. Louis, MO, United States). Mobile phase B: 100% methanol, 1 mM ammonium acetate. Every method run began with 0% mobile phase B, reached 100% mobile phase B flowing at 0.2 mL/min, and gradually returned to 0% mobile phase B.
This screening library will be referred to as the lipidome when discussing data from this study. HPLC/MS/MS data were analyzed using Analyst software (Applied Biosystems) ([Bradshaw et al., 2006]; [Tan et al., 2006]; [Stuart et al., 2013]; [Tortoriello et al., 2013]; [Raboune et al., 2014]; [Leishman et al., 2016a],[b], [2017], [2018]). Chromatograms (Supplementary Figure 3) were generated by determining the retention time of analytes from the analytical column with a [M-1] or [M+1] parent peak and a fragmentation peak corresponding to the programmed values. […]

[1] = brainstem, PND 50, 3 mg/kg CP 55,940, one-way ANOVA p .000
[2] = cerebellum, PND 50, 3 mg/kg CP 55,940
[3] = cerebellum, adult, 3 mg/kg CP 55,940
[4] = cerebellum, PND 35, 3 mg/kg CP 55,940
[5] = cortex, PND 35, 3 mg/kg CP 55,940
[6] = hippocampus, PND 50, 3 mg/kg CP 55,940 vs Veh
[7] = hippocampus, adult, 3 mg/kg CP 55,940
[8] = hippocampus, PND 35, 3 mg/kg CP 55,940 vs vehicle
[9] = striatum, PND 50, 3mg/kg CP 55,940 vs Veh
[10] = striatum, adult, 3 mg/kg CP 55,940, one-way ANOVA p .000
[11] = striatum, PND 35, 3mg/kg CP 55,940
[12] = thalamus, PND 50, 3 mg/kg CP 55,940
[13] = thalamus, adult, 3 mg/kg CP 55,940
[14] = thalamus, PND 35, 3 mg/kg CP 55,940

CCCCCCC(C)(C)c1ccc([C@@H]2C[C@H](O)CC[C@H]2CCCO)c(O)c1 [CP 55,940]
CP 55,940 level, Mean (brainstem, PND 50, 3 mg/kg CP 55,940): 8.2E-11 | CP 55,940 level, Direction (relative to Veh) [1]: ↑ | CP 55,940 level, Magnitude (x Veh level) [1]: infinite | CP 55,940 level: Direction (relative to Veh) [2]: ↑ | CP 55,940 level: Magnitude (x Veh level) [2]: infinite | CP 55,940 level, Mean (cerebellum, PND 50 female mice, 3 mg/kg CP 55,940): 7.57E-11 | CP 55,940 level, Mean (cerebellum, WT adult female mice, 3mg/kg CP 55,940): 2.8E-10 | CP 55,940 level: Direction (relative to Veh) [3]: ↑ | CP 55,940 level: Magnitude (x Veh level) [3]: infinite | CP 55,940 level: Direction (relative to Veh) [4]: ↑ | CP 55,940 level: Magnitude (x Veh level) [4]: infinite | CP 55,940 level, Mean (cerebellum, PND35 WT female mice, 3mg/kg CP 55,940): 7.22E-11 | CP 55,940 level, Direction (relative to Veh) (cortex, PND 50, 3 mg/kg CP 55,940): ↑ | CP 55,940 level, Magnitude (x Veh level) (cortex, PND 50, 3 mg/kg CP 55,940, ANOVA p .000): infinite | CP 55,940 level, Mean (cortex, PND 50 female mice, 3mg/kg CP 55,940): 8.61E-11 | CP 55,940 level Direction (rel to Veh) [5]: ↑ | CP 55,940 level, Magnitude (x Veh level) [5]: infinite | CP 55,940 level, Mean (cortex, PND 35 adolescent female mice, 3 mg/kg CP 55,940): 1.11E-10 | CP 55,940 level, Direction (relative to Veh) [6]: ↑ | CP 55,940 level, Magnitude (x Veh level) [6]: infinite | CP 55,940 level (hippocampus, PND 50 female mice): 1.23E-10 | CP 55,940 level, Mean [7]: 2.68E-10 | CP 55,940 level: Direction (relative to Veh) [7]: ↑ | CP 55,940 level: Magnitude (x Veh level) [7]: infinite | CP 55,940 level: Direction [8]: ↑ | CP 55,940 level: Magnitude [8]: infinite | CP 55,940 level, Mean (hippocampus, PND 35 WT female mice, 3mg/kg CP 55,940): 9.63E-11 | CP 55,940 level, Direction (relative to Veh) (hypothalamus, PND 50, 3mg/kg CP 55,940): ↑ | CP 55,940 level, Magnitude (x Veh level) (hypothalamus, PND 50, 3mg/kg CP 55,940, ANOVA p .000): infinite | CP 55,940 level, Mean (hypothalamus, PND 50 female mice, 3mg/kg CP 55,940): 4.38E-11 | CP 55,940 level, Mean (hypothalamus, PND 35 adolescent female mice, 3 mg/kg): 5.31E-11 | CP 55,940 level, Direction (relative to Veh) (midbrain, PND 50, 3mg/kg CP 55,940): ↑ | CP 55,940 level, Magnitude (x Veh level) (midbrain, PND 50, 3mg/kg CP 55,940, ANOVA p .000): infinite | CP 55,940 level, Mean (midbrain, PND 50 female mice, 3mg/kg CP 55,940): 1.21E-10 | CP 55,940 level, Mean (midbrain, PND 35 WT adolescent female mice, 3 mg/kg): 7.91E-11 | CP 55,940 level, Direction (relative to Veh) [9]: ↑ | CP 55,940 level, Magnitude (x Veh level) [9]: infinite | CP 55,940 level (striatum, PND 50 female mice): 5.87E-11 | CP 55,940 level, Mean (striatum, adult, 3 mg/kg CP 55,940): 2.08E-10 | CP 55,940 level, Direction (relative to Veh) [10]: ↑ | CP 55,940 level, Magnitude (x Veh level) [10]: infinite | CP 55,940 level: Direction (relative to Veh) [11]: ↑ | CP 55,940 level: Magnitude (x Veh level) [11]: infinite | CP 55,940 level: Direction (relative to Veh) [12]: ↑ | CP 55,940 level: Magnitude (x Veh level) [12]: infinite | CP 55,940 level, Mean (thalamus, PND 50 female mice, 3 mg/kg CP 55,940): 9.93E-11 | CP 55,940 level, Mean (thalamus, WT adult female mice, 3mg/kg CP 55,940): 2E-10 | CP 55,940 level: Direction (relative to Veh) [13]: ↑ | CP 55,940 level: Magnitude (x Veh level) [13]: infinite | CP 55,940 level, Direction (relative to Veh) [14]: ↑ | CP 55,940 level, Magnitude (x Veh level) [14]: infinite | CP 55,940 level, Mean (thalamus, PND 35 adolescent female mice, 3 mg/kg CP 55,940): 8.87E-11
